The source of these data is PMC5635026, “Homo-PROTACs: bivalent small-molecule dimerizers of the VHL E3 ubiquitin ligase to induce self-degradation” (Nature Communications, 2017).

One experiment has as its target T1, V30CB (Homo sapiens, UniProt P40337).
T1 construct: N-terminally His6-tagged VHL (1–213), ElonginC (17–112) and ElonginB (1–104) were co-expressed; His6 (N, cleaved yes); made in house; host or cells: Escherichia coli BL21(DE3)
Description: Size-exclusion chromatography (SEC) of complex formation with V30CB. The experiment is classed as binding. As for the experimental part: Protein expression and purification. Human proteins VHL (UniProt accession number: P40337), ElonginC (Q15369), and ElonginB (Q15370) were used for all protein expression. The short-isoform-containing VCB complex (V19CB) was expressed, purified and stored as described previously. For expression of the long-isoform-containing VCB complex (V30CB), N-terminally His6-tagged VHL (1–213), ElonginC (17–112) and ElonginB (1–104) were co-expressed in Escherichia coli BL21(DE3) at 20 °C for 18 h using 0.5 mM isopropyl β-D-1-thiogalactopyranoside (IPTG). E. coli cells were resuspended in binding buffer (50 mM HEPES, pH 8.0, 500 mM NaCl, 10 mM imidazole and 5 mM β-mercaptoethanol), lysed using a pressure cell homogenizer (Stansted Fluid Power), and lysate clarified by centrifugation. The supernatant was loaded onto a HisTrap FF affinity column (GE Healthcare) equilibrated with binding buffer, and bound protein was eluted using an imidazole gradient. […]
Size-exclusion chromatography (SEC). […] The oligomeric state of the VCB complex in solution was analyzed by gel filtration in a buffer containing 20 mM Bis-Tris (pH 7), 150 mM NaCl and 1 mM 1,4-dithiothreitol (DTT) using a Superdex 200 Increase 10/300 GL column (GE Healthcare) calibrated with globular proteins of known molecular weight (GE Healthcare, 28-4038-41/42). […] Peak elution was monitored using ultraviolet absorbance at 280 nm.

The target of another experiment is pVHL30 (Homo sapiens, UniProt P40337). Description: Isothermal titration calorimetry (ITC) against VCB complex with long VHL isoform (V30CB). It is filed as binding. Details: N-terminally His6-tagged VHL (1–213), ElonginC (17–112) and ElonginB (1–104) were co-expressed; His6 (N, cleaved yes); made in house; host or cells: Escherichia coli BL21(DE3). The protocol:
Protein expression and purification. Human proteins VHL (UniProt accession number: P40337), ElonginC (Q15369), and ElonginB (Q15370) were used for all protein expression. The short-isoform-containing VCB complex (V19CB) was expressed, purified and stored as described previously. For expression of the long-isoform-containing VCB complex (V30CB), N-terminally His6-tagged VHL (1–213), ElonginC (17–112) and ElonginB (1–104) were co-expressed in Escherichia coli BL21(DE3) at 20 °C for 18 h using 0.5 mM isopropyl β-D-1-thiogalactopyranoside (IPTG). E. coli cells were resuspended in binding buffer (50 mM HEPES, pH 8.0, 500 mM NaCl, 10 mM imidazole and 5 mM β-mercaptoethanol), lysed using a pressure cell homogenizer (Stansted Fluid Power), and lysate clarified by centrifugation. The supernatant was loaded onto a HisTrap FF affinity column (GE Healthcare) equilibrated with binding buffer, and bound protein was eluted using an imidazole gradient. The His6 tag was removed using thrombin protease (Sigma), and the untagged complex was dialyzed into binding buffer. V30CB was then loaded onto the HisTrap FF column a second time, allowing impurities to bind as the complex eluted without binding. The flow-through was dialyzed using a low-salt buffer (20 mM HEPES, pH 8.0, 25 mM NaCl and 1 mM DTT) and then loaded onto a Resource Q anion exchange column (GE Healthcare); bound protein was eluted across a linear NaCl gradient. V30CB was then additionally purified by size-exclusion chromatography using a Superdex-75 16/600 column (GE Healthcare) equilibrated with 20 mM HEPES, pH 7.5, 100 mM sodium chloride and 1 mM TCEP. All chromatography purification steps were performed using Äkta FPLC purification systems (GE Healthcare).
Isothermal titration calorimetry (ITC). Titrations were performed on an ITC200 micro-calorimeter (GE Healthcare). […] The final DMSO concentration was 0.15% v/v. VCB protein experiments were carried out in a buffer containing 20 mM Bis-tris propane, 150 mM NaCl, 1 mM TCEP, 0.15% v/v DMSO, pH 7.4. The titrations consisted of 19 injections of 2 µL compounds solution (150 µM, in the syringe) at a rate of 0.5 µl s^−1 at 120 s time intervals into the VCB protein solution (20 µM, in the cell). An initial injection of compound solution (0.4 µL) was made and discarded during data analysis. All experiments were performed at 25 °C, whilst stirring the syringe at 600 rpm. The data were fitted to a single binding site model to obtain the stoichiometry n, the dissociation constant K d and the enthalpy of binding ΔH using the Microcal LLC ITC200 Origin software provided by the manufacturer.

Chain of pVHL30 (P40337 whole entry, canonical isoform): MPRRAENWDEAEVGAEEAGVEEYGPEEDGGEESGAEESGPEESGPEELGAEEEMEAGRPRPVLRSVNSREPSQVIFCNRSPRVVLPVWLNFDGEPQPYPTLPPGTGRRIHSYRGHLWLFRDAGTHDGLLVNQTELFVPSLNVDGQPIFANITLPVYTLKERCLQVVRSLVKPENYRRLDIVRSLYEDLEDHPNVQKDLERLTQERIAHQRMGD
Chain of pVHL30 (Q15369 17-112 partner limits assumed): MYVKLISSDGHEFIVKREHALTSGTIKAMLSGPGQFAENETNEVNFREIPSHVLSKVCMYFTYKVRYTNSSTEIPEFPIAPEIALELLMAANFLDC
Chain of pVHL30 (Q15370 1-104 partner limits assumed): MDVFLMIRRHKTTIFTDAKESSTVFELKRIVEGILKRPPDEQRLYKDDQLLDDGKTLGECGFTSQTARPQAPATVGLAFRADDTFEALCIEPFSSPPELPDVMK
T1 sequence (P40337 whole entry): as the sequence (P40337 whole entry, canonical isoform) above
T1 sequence (Q15369 17-112 partner limits assumed): as the sequence (Q15369 17-112 partner limits assumed) above
T1 sequence (Q15370 1-104 partner limits assumed): as the sequence (Q15370 1-104 partner limits assumed) above

For `Cc1ncsc1-c1ccc(CNC(=O)[C@@H]2C[C@@H](O)CN2C(=O)[C@@H](NC(=O)COCCOCCOCCOCCOCCOCC(=O)N[C@H](C(=O)N2C[C@H](O)C[C@H]2C(=O)NCc2ccc(-c3scnc3C)cc2)C(C)(C)C)C(C)(C)C)cc1` [CM11, N ^1 ,N ^20-bis((S)-1-((2S,4R)-4-hydroxy-2-((4-(4-methylthiazol-5-yl)benzyl)carbamoyl)pyrrolidin-1-yl)-3,3-dimethyl-1-oxobutan-2-yl)-3,6,9,12,15,18-hexaoxaicosanediamide], the “complex formation in SEC with V30CB” value on V30CB was “Formation of a 2:1 complex”. On pVHL30 (25 °C, pVHL30), the ΔG entry is on record as “–10.4 ± 0.1 kcal mol^−1” and the ΔH entry is “–11.3 ± 0.1 kcal mol^−1”. At pVHL30 (25 °C, pVHL30 (V30CB)), this molecule returned a Kd of 25 ± 3 nM. This molecule showed a n at pVHL30 (25 °C, stoichiometry of binding, pVHL30 (V30CB)) of 0.866 ± 0.003. The same molecule came in with a α on pVHL30 (avidity / cooperativity, pVHL30) of 7.5.
